Entries after “also recorded” stand apart in the source; their conditions may differ. Where two headings read alike, the source gives them in different places. Numbered stars: 1 amine (or outer) side, 2 acyl side, 3 side chain; on linkers, the order of the positions; unused ones are H or OH. Square brackets hold non-standard residues; d marks the D form. Side chains are listed from the residue outwards. Peptide text beside a SMILES is read from it. * marks the point of attachment. C18 diacid = O=C(O)CCCCCCCCCCCCCCCCC(=O)*; γGlu = O=C(O)[C@H](CCC(=O)[*:2])N[*:1]; αMeR = C[C@](N)(CCCNC(=N)N)C(=O)O; AEEA = NCCOCCOCC(=O)O; Aib = CC(C)(N)C(=O)O
Tests used:
[1] = biological target: T1, human GLP-1R (Homo sapiens, UniProt P43220); assay: cAMP assay (HitHunter cAMP) in GLP-1R-expressing CHO-K1 cells (GLP-1R+ cells); format: cell-based; conditions: for activity on GLP-1R compared to SEQ ID NO. 77, in words: Example 13; for Ratio vs. GLP-1R, GLP-1R / Relative % to native ligand, GLP-1R: Table 36
T1 construct: host or cells: CHO-K1
T1 sequence (P43220 24-463): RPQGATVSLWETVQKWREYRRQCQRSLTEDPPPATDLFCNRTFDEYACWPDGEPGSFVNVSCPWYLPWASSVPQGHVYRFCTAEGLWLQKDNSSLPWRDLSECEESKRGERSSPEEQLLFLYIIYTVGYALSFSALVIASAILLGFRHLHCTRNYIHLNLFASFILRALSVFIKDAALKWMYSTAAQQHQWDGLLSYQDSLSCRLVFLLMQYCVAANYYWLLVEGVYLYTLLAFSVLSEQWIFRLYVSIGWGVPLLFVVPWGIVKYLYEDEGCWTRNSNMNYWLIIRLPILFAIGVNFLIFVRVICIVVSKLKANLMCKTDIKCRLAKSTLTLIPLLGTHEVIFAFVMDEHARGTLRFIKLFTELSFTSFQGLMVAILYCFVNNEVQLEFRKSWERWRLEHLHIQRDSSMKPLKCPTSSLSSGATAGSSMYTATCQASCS
Procedure, shortened: (§1)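 CHO-K1 cells expressing each receptor were plated overnight, then treated with peptide in cAMP assay buffer for 30 min at 37 °C. cAMP was detected by antibody plus detection solution (1 h) and Solution A (3 h), both at room temperature in the dark. Luminescence was the read-out.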

[2] = biological target: T2, human GCGR (Homo sapiens, UniProt P47871); assay: cAMP assay (HitHunter cAMP) in GCGR-expressing CHO-K1 cells (GCGR+ cells); format: cell-based; conditions: Table 36
T2 construct: host or cells: CHO-K1
T2 sequence (P47871 26-477): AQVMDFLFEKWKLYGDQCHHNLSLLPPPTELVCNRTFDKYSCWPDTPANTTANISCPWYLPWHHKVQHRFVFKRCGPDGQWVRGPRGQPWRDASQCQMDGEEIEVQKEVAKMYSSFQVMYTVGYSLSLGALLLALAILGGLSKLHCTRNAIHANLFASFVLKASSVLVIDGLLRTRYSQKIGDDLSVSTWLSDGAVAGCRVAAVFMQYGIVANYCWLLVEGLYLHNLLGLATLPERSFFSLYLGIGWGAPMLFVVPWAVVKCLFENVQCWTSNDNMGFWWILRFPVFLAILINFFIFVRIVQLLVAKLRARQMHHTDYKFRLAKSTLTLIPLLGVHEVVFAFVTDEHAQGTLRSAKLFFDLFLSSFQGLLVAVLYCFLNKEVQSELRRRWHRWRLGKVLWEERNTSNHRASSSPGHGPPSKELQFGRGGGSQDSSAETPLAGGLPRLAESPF
Procedure, shortened: as §1

[3] = biological target: T3, human GIPR (Homo sapiens, UniProt P48546); assay: cAMP assay (HitHunter cAMP) in GIPR-expressing CHO-K1 cells (GIPR+ cells); format: cell-based; conditions: for Ratio vs. GLP-1R, GIPR / Relative % to native ligand, GIPR: Table 36
T3 construct: host or cells: CHO-K1
T3 sequence (P48546 22-466): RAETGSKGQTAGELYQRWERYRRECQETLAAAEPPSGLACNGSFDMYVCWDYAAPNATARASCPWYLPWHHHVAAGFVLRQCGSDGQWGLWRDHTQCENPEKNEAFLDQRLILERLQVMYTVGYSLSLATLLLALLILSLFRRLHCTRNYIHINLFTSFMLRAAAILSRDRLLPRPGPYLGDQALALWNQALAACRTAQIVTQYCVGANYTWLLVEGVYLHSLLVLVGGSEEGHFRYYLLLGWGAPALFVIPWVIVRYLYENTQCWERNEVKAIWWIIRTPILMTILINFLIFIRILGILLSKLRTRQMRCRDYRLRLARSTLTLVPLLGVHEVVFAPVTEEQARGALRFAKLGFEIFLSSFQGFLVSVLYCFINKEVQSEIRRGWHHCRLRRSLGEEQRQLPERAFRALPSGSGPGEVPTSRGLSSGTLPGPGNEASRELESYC
Procedure, shortened: as §1

[4] = In vitro enzymatic stability against FaSSIF/P (pancreatin in FaSSIF, pH 6.5); format: in vitro ADME; conditions: simulated gi fluid, pH 6.5, Half-life (min), FaSSIF/P
[5] = system: FaSSIF/P; assay: as above; format: in vitro ADME
[6] = format: in vitro ADME; conditions: pH 7.8
Description: (§2) For the stability against trypsin, the test samples were prepared by mixing stock solutions of peptide and trypsin dissolved in 50 mM PBS (pH 7.8) containing 0.02% PS80 in a weight ratio of 10:1. The test samples were incubated at 37° C. for 180 min. The sampling from test samples was proceeded at the predetermined time points (10, 30, 60, 90, 120, and 180 min) and stopped by 10% TFA solution.
(§3) Analytical HPLC was performed to determine the remaining amount on an ACQUITY Premier system (Waters, USA) with an ACQUITY CSH C18 column (Waters, USA) at 35° C. using 0.1% TFA in water and acetonitrile. The remaining amount was determined as a percentage of the peak area at the sampling time point relative to the peak area of the initial sample.

[7] = system: trypsin; format: in vitro ADME
Description: as §2, §3

[8] = In vivo efficacy in CDA-HFD (NASH) mice, 4 weeks; conditions: Example 16
Description: This study was conducted to evaluate the efficacy of SEQ ID NOs. […] SEQ ID NOs. The peptides were delivered at 0.02% PS80 in PBS and dosing volume was 10 mL/kg. Control group was administered by vehicle without peptide.
Body weight changes were monitored Q2D; serum chemistry (end); hepatic TG (end); and histological analysis (end). […]

[9] = In vivo efficacy in mAMLN (obese and NASH) mice, 4 weeks; conditions: after 4 weeks
[10] = biological target: human glucose-dependent insulinotropic polypeptide receptor (GIPR), expressed on CHO-K1 cells (human) (UniProt P48546); assay: cell-based or functional assay
[11] = biological target: human glucose-dependent insulinotropic polypeptide receptor (GIPR), expressed on CHO-K1 cells (human) (UniProt P48546); assay: cell-based or functional assay; remark: listed apart in the source

| Compound | activity on GLP-1R compared to SEQ ID NO. 77, in words [1] | Ratio vs. GLP-1R, GLP-1R [1] | Relative % to native ligand, GLP-1R [1] | Ratio vs. GLP-1R, GCGR [2] | Relative % to native ligand, GCGR [2] | Ratio vs. GLP-1R, GIPR [3] | Relative % to native ligand, GIPR [3] | half-life [4] | half-life [6] | stability against trypsin compared with SEQ ID NO. 77, in words [7] | other results |
| --- | --- | --- | --- | --- | --- | --- | --- | --- | --- | --- | --- |
| CSCC[C@H](NC(=O)[C@H](Cc1ccc(O)cc1)NC(=O)[C@H](CC(=O)O)NC(=O)[C@H](CC(C)C)NC(=O)[C@H](CC(C)C)NC(=O)[C@H](CCCCNC(=O)COCCOCCNC(=O)COCCOCCNC(=O)CC[C@H](NC(=O)CCCCCCCCCCCCCCCCC(=O)O)C(=O)O)NC(=O)[C@H](CO)NC(=O)[C@H](Cc1ccc(O)cc1)NC(=O)[C@H](CC(=O)O)NC(=O)[C@H](CO)NC(=O)[C@@H](NC(=O)[C@H](Cc1ccccc1)NC(=O)[C@@H](NC(=O)CNC(=O)[C@H](CCC(N)=O)NC(=O)C(C)(C)NC(=O)[C@@H](N)Cc1ccc(O)cc1)[C@@H](C)O)[C@@H](C)O)C(=O)N[C@@H](CCSC)C(=O)N[C@@H](CCC(N)=O)C(=O)N[C@@](C)(CCCNC(=N)N)C(=O)N[C@@H](CC(=O)O)C(=O)N[C@@H](Cc1ccccc1)C(=O)N[C@H](C(=O)N[C@@H](CCC(N)=O)C(=O)N[C@@H](Cc1c[nH]c2ccccc12)C(=O)N[C@@H](CC(C)C)C(=O)N[C@@H](CC(C)C)C(=O)N[C@@H](CCC(=O)O)C(=O)NCC(=O)NCC(=O)N1CCC[C@H]1C(=O)N[C@@H](CO)C(=O)N[C@@H](CO)C(=O)NCC(=O)N[C@@H](C)C(=O)N1CCC[C@H]1C(=O)N1CCC[C@H]1C(=O)N1CCC[C@H]1C(=O)N[C@@H](CO)C(N)=O)C(C)C [compound 101] (H-Y[Aib]QGTFTSDYSK([AEEA-AEEA-γGlu-C18 diacid])LLDYMMQ[αMeR]DFVQWLLEGGPSSGAPPPS-NH2; N-terminus assumed) | increased | 100 | 722% | 12 | 89% | 65 | 472% | 1.18 h | > 7.23 h | improved stability | activity on GIPR compared to SEQ ID NO. 77, in words ([3]; Example 13): increased; stability against FaSSIF/P compared with SEQ ID NO. 77, in words [5]: improved stability; efficacy in the NASH model, in words [8]: most excellent efficacy; hepatic steatosis score compared to CDA-HFD control, in words [8]: significantly reduced; scores of hepatocytes inflammation and NAS score, in words [8]: statistically reduced; also recorded: most decreased; body weight compared to vehicle-treated control, in words ([8]; 20 nmol/kg s.c. Q2D, 4 weeks): reduce body weight; also recorded: greatest weight loss; liver enzymes and liver steatosis compared to vehicle-treated control, in words ([8]; end of treatment): reduce liver enzymes and liver steatosis significantly; NAS score, in words [9]: statistically decreased more than the level of tirzepatide; hepatic steatosis (histological score), in words [9]: significantly reduced; liver weight, visceral fat weight, liver enzymes, and liver steatosis compared to vehicle-treated control, in words [9]: significantly reduced |
| GIP (native ligand) (from UniProt P09681 52-93) | – | – | – | – | – | – | – | – | – | – | EC50 (nM), cAMP assay [10]: 2.03 nM; EC50 (nM), cAMP assay [11]: 0.732 nM; EC50, c-AMP release (FIG. 8C) [11]: 0.24 nM; EC50, c-AMP release (FIG. 9C) [11]: 0.24 nM; EC50, cAMP release (FIG. 7C) [11]: 1.78 nM; Percentage change in EC50 relative to GIP at human GIPR (%) [11]: 100% |
| CSCC[C@H](NC(=O)[C@H](Cc1ccc(O)cc1)NC(=O)[C@H](CC(=O)O)NC(=O)[C@H](CC(C)C)NC(=O)[C@H](CC(C)C)NC(=O)[C@H](CCCCNC(=O)COCCOCCNC(=O)COCCOCCNC(=O)CC[C@H](NC(=O)CCCCCCCCCCCCCCCCC(=O)O)C(=O)O)NC(=O)[C@H](CO)NC(=O)[C@H](Cc1ccc(O)cc1)NC(=O)[C@H](CC(=O)O)NC(=O)[C@H](CO)NC(=O)[C@@H](NC(=O)[C@H](Cc1ccccc1)NC(=O)[C@@H](NC(=O)CNC(=O)[C@H](CCC(N)=O)NC(=O)C(C)(C)NC(=O)[C@@H](N)Cc1ccc(O)cc1)[C@@H](C)O)[C@@H](C)O)C(=O)N[C@@H](CCSC)C(=O)N[C@@H](CCC(N)=O)C(=O)N[C@@H](Cc1c[nH]cn1)C(=O)N[C@@H](CC(=O)O)C(=O)N[C@@H](Cc1ccccc1)C(=O)N[C@H](C(=O)N[C@@H](CCC(N)=O)C(=O)N[C@@H](Cc1c[nH]c2ccccc12)C(=O)N[C@@H](CC(C)C)C(=O)N[C@@H](CC(C)C)C(=O)N[C@@H](CCC(=O)O)C(=O)NCC(=O)NCC(=O)N1CCC[C@H]1C(=O)N[C@@H](CO)C(=O)N[C@@H](CO)C(=O)NCC(=O)N[C@@H](C)C(=O)N1CCC[C@H]1C(=O)N1CCC[C@H]1C(=O)N1CCC[C@H]1C(=O)N[C@@H](CO)C(N)=O)C(C)C [compound 99] (H-Y[Aib]QGTFTSDYSK([AEEA-AEEA-γGlu-C18 diacid])LLDYMMQHDFVQWLLEGGPSSGAPPPS-NH2; N-terminus assumed) | slightly decreased | 100 | 35% | 80 | 28% | 3237 | 1132% | 0.632 h | > 7.23 h | increased half-lives | – |
